For data set [1] the following is noted: DMD patients, oral 10, 10, 20 mg/kg/day (morning, mid-day and evening dose); read-out: mean Cmax at the steady state; cited from earlier work.
Data set [2] has as its target T1, CYP1A2 (Homo sapiens, UniProt P05177).
T1 construct: tissue XenoTech LLC, Celsis-In Vitro Technologies, or Tissue Transformation Technologies; host or cells: pooled human liver microsomes
T1 sequence (P05177 1-516): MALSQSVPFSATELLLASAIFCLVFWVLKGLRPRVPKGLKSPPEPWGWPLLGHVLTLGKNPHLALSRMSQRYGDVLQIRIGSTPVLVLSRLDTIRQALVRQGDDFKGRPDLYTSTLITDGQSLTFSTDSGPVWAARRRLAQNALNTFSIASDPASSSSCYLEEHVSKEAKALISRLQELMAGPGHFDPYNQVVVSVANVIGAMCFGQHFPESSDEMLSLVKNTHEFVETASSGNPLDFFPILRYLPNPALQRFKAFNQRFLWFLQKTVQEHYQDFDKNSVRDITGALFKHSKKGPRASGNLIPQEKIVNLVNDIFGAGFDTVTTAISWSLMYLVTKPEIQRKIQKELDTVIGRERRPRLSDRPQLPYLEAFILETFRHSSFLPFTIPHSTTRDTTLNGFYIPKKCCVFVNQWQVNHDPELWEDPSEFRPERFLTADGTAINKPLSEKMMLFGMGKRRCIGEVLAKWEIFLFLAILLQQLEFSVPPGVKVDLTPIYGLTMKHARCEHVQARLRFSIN
Kind of data set: CYP inhibition in pooled human liver microsomes: CYP1A2. It is filed as in vitro ADME. Particulars: CYP1A2, HLM, estimated, concentrations up to 400 μmol/L. As for the experimental part: The final concentration of each probe substrate was near the experimentally determined Km value for the indicated enzyme. Ataluren or prototypical CYP inhibitors (positive controls) was incubated (n = 3) with probe substrates and HLM in 100 mmol/L phosphate buffer (pH 7.4) in a total volume of approximately 0.25 mL, and the reactions were initiated by the addition of 1 mmol/L NADPH at 37°C. The reactions were carried out using previously established conditions to ensure linearity with respect to protein concentration and incubation time (Table S1). Incubations were stopped with the addition of ice‐cold acetonitrile. Metabolite formation in incubations with test compound and control inhibitors was assessed with LC‐MS/MS methods for each of the reaction products as described in Table S2. […] After 7 minutes incubation at 37°C, the reaction was stopped by the addition of ice‐cold acetonitrile, followed by membrane plate filtration. The filtrates were used for LC‐MS/MS analysis. […] IC50 values were determined by nonlinear regression with GraphPad Prism 5 using the following four‐parameter sigmoidal‐logistic IC50 equation: Fit=background+range-background/[1+I/IC50^slope]
(§1) Where, I is the inhibitor concentration, and background was set to 0 and range to 100, as percent of control values are utilized. K i was determined by nonlinear regression with GraphPad Prism 5 using best fit model.

The subject of data set [3] is CYP3A4/5. Description: CYP inhibition in pooled human liver microsomes: CYP3A4/5. The data set is classed as in vitro ADME. The procedure: The final concentration of each probe substrate was near the experimentally determined Km value for the indicated enzyme. Ataluren or prototypical CYP inhibitors (positive controls) was incubated (n = 3) with probe substrates and HLM in 100 mmol/L phosphate buffer (pH 7.4) in a total volume of approximately 0.25 mL, and the reactions were initiated by the addition of 1 mmol/L NADPH at 37°C. The reactions were carried out using previously established conditions to ensure linearity with respect to protein concentration and incubation time (Table S1). Incubations were stopped with the addition of ice‐cold acetonitrile. Metabolite formation in incubations with test compound and control inhibitors was assessed with LC‐MS/MS methods for each of the reaction products as described in Table S2. […] After 7 minutes incubation at 37°C, the reaction was stopped by the addition of ice‐cold acetonitrile, followed by membrane plate filtration. The filtrates were used for LC‐MS/MS analysis. Enzyme activity remaining at each nonzero ataluren concentration after incubation was normalized against control sample (zero ataluren concentration, enzyme activity = 100%), and the % remaining enzyme activity values were used for IC50 calculation. IC50 values were determined by nonlinear regression with GraphPad Prism 5 using the following four‐parameter sigmoidal‐logistic IC50 equation: Fit=background+range-background/[1+I/IC50^slope]
as §1

Data set [4] can be described thus: Plasma protein binding (ultrafiltration), rat. The following applies: male, Sprague Dawley, 50 to 50 000 ng/mL, mean ± SD, n = 3, read-out: percentage protein binding (converted). It is filed as in vitro ADME. The procedure: (§2) [^14C]‐Ataluren, at 50, 500, 5000, and 50 000 ng/mL or 0.175, 1.75, 17.5, and 175 µM, in male mouse, rat, dog, monkey, and human plasma, was incubated (n = 3) at 37°C for approximately 15 minutes, transferred into Centrifree® Micropartition Units (30 000 Da molecular weight cutoff, 1 mL capacity; Amicon Inc), and centrifuged at 37°C and 2000 g for approximately 10 minutes so that the amount of the sample filtered was approximately ≤ 20% of the total volume. After centrifugation, the entire ultrafiltrate was weighed and analyzed for radioactivity using liquid scintillation counting. The percent bound = (1‐Cu/Cm)×100, where Cu is the concentration of radioactivity in the ultrafiltrate and Cm is the concentration of radioactivity in the plasma before centrifugation.

The nature of data set [5]: Plasma protein binding (ultrafiltration), monkey. The data set is classed as in vitro ADME. The following applies: male, cynomolgus, 50 to 50 000 ng/mL, mean ± SD, n = 3, read-out: percentage protein binding (converted). The procedure:
as §2

Where only a bound is given, the exact number is not on record here.

As a reminder, the Cmax is the peak of the concentration-time curve. What is called IC50 is the point on the concentration scale where inhibition reaches its midpoint.

For `O=C(O)c1cccc(-c2noc(-c3ccccc3F)n2)c1` [ataluren, Ataluren], the Cmax in data set [1] was about 79.9 µM. Further, the IC50 in data set [2] is over 400 µM; in data set [3] (pH 7.4, CYP3A4/5, HLM, estimated, concentrations up to 400 μmol/L, substrate not stated), over 400 µM; in data set [3] (pH 7.4, probe midazolam (1′-hydroxylation), Midazolam 1′-hydroxylase, pooled HLM, n=3), over 400 µM; in data set [3] (pH 7.4, probe testosterone (6β-hydroxylation), Testosterone 6β-hydroxylase, pooled HLM, n=3) it was over 400 µM. Also, the fraction unbound at 15 min was 0.013 in data set [4] and 0.003 in data set [5].

(Values after PMC7083565, “In vitro metabolism, reaction phenotyping, enzyme kinetics, CYP inhibition and induction potential of ataluren” (Pharmacology Research & Perspectives, 2020).)
